Results published in article PMC5382279, “Glutaredoxin catalysis requires two distinct glutathione interaction sites” (Nature Communications, 2017).
“And” between values parts separate entries of the source, which are not always exact repeats. Identical values can stand only once. Numbered stars: 1 amine (or outer) side, 2 acyl side, 3 side chain; on linkers, the order of the positions; unused ones are H or OH. Square brackets hold non-standard residues; d marks the D form. Peptide text beside a SMILES is read from it. γGlu = O=C(O)[C@H](CCC(=O)[*:2])N[*:1]; Abu = CC[C@H](N)C(=O)O

Key:
ScGrx7 [1] = molecular target: T1, ScGrx7 (Saccharomyces cerevisiae, UniProt P38068); assay: coupled NADPH/glutathione reductase assay, […] nm, HEDS assay; format: biochemical; conditions: varied HEDS 90-920 uM at fixed GSH 0.3-1.5 mM; 0.1 M Tris/HCl, 1 mM EDTA, pH 8.0, 25 C; sequential pattern
T1 construct: gene GRX7; N-terminal MRGS(H)6 tag kept, E. coli XL1-Blue, pQE30/SCGRX7 double stop-codon construct
T1 sequence (P38068 33-203): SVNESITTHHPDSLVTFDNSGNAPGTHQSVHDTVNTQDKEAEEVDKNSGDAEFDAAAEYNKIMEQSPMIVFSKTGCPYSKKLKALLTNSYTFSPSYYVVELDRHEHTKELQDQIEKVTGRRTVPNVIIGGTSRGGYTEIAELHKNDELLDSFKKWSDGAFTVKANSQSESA

ScGrx7 [2] = molecular target: T1, ScGrx7; assay: coupled NADPH/glutathione reductase assay, […] nm, GSSCys assay; format: biochemical; conditions: varied GSSCys 25-200 uM at fixed GSH 0.05-1.0 mM; 0.1 M Tris/HCl, 1 mM EDTA, pH 8.0, 25 C; ping-pong
ScGrx7 [3] = molecular target: T2, ScGrx7 (Saccharomyces cerevisiae, UniProt P38068, E170K); assay: as above; format: biochemical; conditions: varied GSSCys 25-200 uM at fixed GSH 0.05-1.0 mM; 0.1 M Tris/HCl, 1 mM EDTA, pH 8.0, 25 C; ping-pong
T2 construct: gene GRX7; N-terminal MRGS(H)6 tag kept, E. coli XL1-Blue, pQE30/SCGRX7 double stop-codon construct
T2 sequence (P38068 33-203 E170K): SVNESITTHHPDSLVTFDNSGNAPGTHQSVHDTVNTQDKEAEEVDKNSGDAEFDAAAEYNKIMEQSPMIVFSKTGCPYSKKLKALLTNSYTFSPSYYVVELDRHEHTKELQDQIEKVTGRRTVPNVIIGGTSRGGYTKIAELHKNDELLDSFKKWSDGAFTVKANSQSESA

ScGrx7 [4] = molecular target: T3, ScGrx7 (Saccharomyces cerevisiae, UniProt P38068, K105A); assay: as above; format: biochemical; conditions: varied GSSCys 25-200 uM at fixed GSH 0.05-1.0 mM; 0.1 M Tris/HCl, 1 mM EDTA, pH 8.0, 25 C; ping-pong
T3 construct: gene GRX7; N-terminal MRGS(H)6 tag kept, E. coli XL1-Blue, pQE30/SCGRX7 double stop-codon construct
T3 sequence (P38068 33-203 K105A): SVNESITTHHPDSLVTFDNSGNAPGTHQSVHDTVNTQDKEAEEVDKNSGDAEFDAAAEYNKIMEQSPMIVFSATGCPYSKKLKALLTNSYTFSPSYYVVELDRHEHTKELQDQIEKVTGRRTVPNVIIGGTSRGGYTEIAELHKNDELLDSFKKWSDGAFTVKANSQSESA

ScGrx7 [5] = molecular target: T4, ScGrx7 (Saccharomyces cerevisiae, UniProt P38068, K105E); assay: as above; format: biochemical; conditions: varied GSSCys 25-200 uM at fixed GSH 0.05-1.0 mM; 0.1 M Tris/HCl, 1 mM EDTA, pH 8.0, 25 C; ping-pong
T4 construct: gene GRX7; N-terminal MRGS(H)6 tag kept, E. coli XL1-Blue, pQE30/SCGRX7 double stop-codon construct
T4 sequence (P38068 33-203 K105E): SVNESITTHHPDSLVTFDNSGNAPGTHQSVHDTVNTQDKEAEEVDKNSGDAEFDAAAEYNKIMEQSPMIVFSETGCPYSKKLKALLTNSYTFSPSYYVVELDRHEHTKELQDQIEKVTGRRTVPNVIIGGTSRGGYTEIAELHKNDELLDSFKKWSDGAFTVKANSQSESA

ScGrx7 [6] = molecular target: T5, ScGrx7 (Saccharomyces cerevisiae, UniProt P38068, E170A); assay: as above; format: biochemical; conditions: varied GSSCys 25-200 uM at fixed GSH 0.05-1.0 mM; 0.1 M Tris/HCl, 1 mM EDTA, pH 8.0, 25 C; ping-pong
T5 construct: gene GRX7; N-terminal MRGS(H)6 tag kept, E. coli XL1-Blue, pQE30/SCGRX7 double stop-codon construct
T5 sequence (P38068 33-203 E170A): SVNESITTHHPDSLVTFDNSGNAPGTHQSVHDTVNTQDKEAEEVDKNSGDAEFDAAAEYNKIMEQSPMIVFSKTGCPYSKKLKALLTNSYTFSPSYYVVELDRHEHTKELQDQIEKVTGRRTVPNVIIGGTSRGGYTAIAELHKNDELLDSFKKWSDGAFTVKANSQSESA

ScGrx7 [7] = molecular target: T1, ScGrx7; assay: inhibition of HEDS or GSSEtOH assay; format: biochemical; conditions: up to 10 mM inhibitor; weak competitive inhibitor; HEDS or GSSEtOH as disulfide substrate with GSH
[8] = substrate: N[C@@H](CCC(=O)N[C@@H](CS)C(=O)NCC(=O)O)C(=O)O; assay: purified protein, by the assay type; parameters: HEDS oxidoreductase assay, glutathione reductase coupled, NADPH consumption at 340 nm, pH 8.0, 25 °C; conditions: pH 8.0; 25.0 °C
Procedure: (§1) Both assays were performed with 0.1 mM NADPH and 1 U ml^−1 GR. Final concentrations of K105X and E170X mutants were 10 nM to 1.5 μM and 5–20 nM, respectively. Final concentrations of DM, D90A and K26A were 5–10 nM, 5–12.5 nM and 50–100 nM, respectively. […] NADPH, GSH and GR were mixed in assay buffer before Grx was added and a baseline was recorded for 30 s. […] For the HEDS assays, either GSH was varied between 100 μM and 1.5 mM for ScGrx (or 250 μM and 3.0 mM for PfGrx) at fixed concentrations of HEDS (0.18, 0.37, 0.55 and 0.74 mM) or HEDS was varied between 90 and 920 μM at fixed concentrations of GSH (0.3, 0.5, 1 and 1.5 mM for ScGrx7 or 0.25, 0.5, 1 and 2 mM for PfGrx). NADPH, GSH and HEDS were preincubated in assay buffer for 2 min before GR was added and a baseline was recorded for 30 s. All HEDS assays were started by the addition of enzyme. Kinetic data were analysed in Excel and SigmaPlot 12 by non-linear and linear regression according to Michaelis–Menten, Lineweaver–Burk, Eadie–Hofstee and Hanes theory[11][12][18]. […] All data points are the mean ± S.D. from at least three independent replicates and were averaged from at least three independent protein purification experiments and subsequently plotted and fitted in Sigmaplot 12.5 according to Michaelis-Menten, Lineweaver-Burk, Eadie-Hofstee and Hanes theory (the latter two plots are not shown). […] All data points are the mean ± S.D. from at least three independent replicates and were averaged from at least three independent protein purification experiments and subsequently plotted and fitted in Sigmaplot 12.5 according to Michaelis-Menten, Lineweaver-Burk, Eadie-Hofstee and Hanes theory (the latter two plots are not shown).

[9] = substrate: OCCSSCCO; assay: purified protein, by the assay type; parameters: HEDS oxidoreductase assay, glutathione reductase coupled, NADPH consumption at 340 nm, pH 8.0, 25 °C; conditions: pH 8.0; 25.0 °C
Procedure: as §1

[10] = substrate: N[C@@H](CCC(=O)N[C@@H](CS)C(=O)NCC(=O)O)C(=O)O; assay: purified protein, by the assay type; parameters: HEDS assay, GR-coupled NADPH consumption at 340 nm, steady-state kinetics; conditions: pH 8.0; 25.0 °C
Procedure: (§2) Both assays were performed with 0.1 mM NADPH and 1 U ml^−1 GR. Final concentrations of K105X and E170X mutants were 10 nM to 1.5 μM and 5–20 nM, respectively. Final concentrations of DM, D90A and K26A were 5–10 nM, 5–12.5 nM and 50–100 nM, respectively. […] NADPH, GSH and GR were mixed in assay buffer before Grx was added and a baseline was recorded for 30 s. […] For the HEDS assays, either GSH was varied between 100 μM and 1.5 mM for ScGrx (or 250 μM and 3.0 mM for PfGrx) at fixed concentrations of HEDS (0.18, 0.37, 0.55 and 0.74 mM) or HEDS was varied between 90 and 920 μM at fixed concentrations of GSH (0.3, 0.5, 1 and 1.5 mM for ScGrx7 or 0.25, 0.5, 1 and 2 mM for PfGrx). NADPH, GSH and HEDS were preincubated in assay buffer for 2 min before GR was added and a baseline was recorded for 30 s. All HEDS assays were started by the addition of enzyme. Kinetic data were analysed in Excel and SigmaPlot 12 by non-linear and linear regression according to Michaelis–Menten, Lineweaver–Burk, Eadie–Hofstee and Hanes theory[11][12][18]. […] All data points are the mean ± S.D. from at least three independent replicates and were averaged from at least three independent protein purification experiments and subsequently plotted and fitted in Sigmaplot 12.5 according to Michaelis-Menten, Lineweaver-Burk, Eadie-Hofstee and Hanes theory (the latter two plots are not shown).

[11] = substrate: OCCSSCCO; assay: purified protein, by the assay type; parameters: HEDS assay, GR-coupled NADPH consumption at 340 nm, steady-state kinetics; conditions: pH 8.0; 25.0 °C
Procedure: as §2

With `OCCSSCCO` [HEDS] the Km app (ScGrx7 [1]) was “Selected kcat ^app and Km ^app values of ScGrx7 wild-type enzyme and K105X mutants”.

`N[C@@H](CCC(=O)N[C@@H](CSSC[C@H](N)C(=O)O)C(=O)NCC(=O)O)C(=O)O` [GSSCys] was tested, and the Km app (ScGrx7 [2]) was “Selected kcat ^app and Km ^app values of ScGrx7 wild-type enzyme and K105X mutants”, the Km app (ScGrx7 [3]) was “Km ^app values for GSSCys and GSH were reciprocally doubled and halved, respectively” and the Km app (ScGrx7 [4]) was “all K105X mutants had increased Km ^app(GSSCys) values”. For the same molecule, the Km app (ScGrx7 [5]) was “all K105X mutants had increased Km ^app(GSSCys) values” and the Km app (ScGrx7 [6]) was “Km ^app values for GSSCys and GSH were reciprocally doubled and halved, respectively”.

In the case of `CC[C@H](NC(=O)CC[C@H](N)C(=O)O)C(=O)NCC(=O)O` [ophthalmic acid, L-γ-glutamyl-L-α-aminobutyrylglycine] (γGlu-[Abu]-Gly-OH), the “% reduction of reaction velocity at up to 10 mM” value (ScGrx7 [7]) is reported as 10–20%.

B1: ScGrx7 (Saccharomyces cerevisiae S288C) (protein)
chain: SVNESITTHHPDSLVTFDNSGNAPGTHQSVHDTVNTQDKEAEEVDKNSGDAEFDAAAEYNKIMEQSPMIVFSKTGCPYSKKLKALLTNSYTFSPSYYVVELDRHEHTKELQDQIEKVTGRRTVPNVIIGGTSRGGYTEIAELHKNDELLDSFKKWSDGAFTVKANSQSESA
notes: N-terminal MRGS(H)6 tag kept, E. coli XL1-Blue, pQE30/SCGRX7 double stop-codon construct
In the case of B1, the Km [8] is reported as 1200 ± 100 µM and 2300 ± 500 µM, the Km [9] is reported as 2300 ± 700 µM and 1500 ± 200 µM and the Km [10] is reported as 1210 ± 200 µM and 1230 ± 150 µM and 1120 ± 110 µM. For the same molecule, the Km [11] was 2050 ± 200 µM and 1820 ± 300 µM and 3720 ± 1100 µM.
